According to patent US10724044B2, “Reversible genic male sterility in compositae” (priority 2013, dated 2020):
“Also recorded” adds a separate entry of the source.

Legend:
[1] = test system: homozygous mutant lettuce plant (Lactuca sativa), having a mutated version of the OPR3 gene; assay: Reversal of male sterility in homozygous OPR3 mutant lettuce by spraying young flower buds; assay type: in vivo; conditions: for restoration of male fertility in the F2 generation: F2 of cross of NCIMB 42060 plants with wild type lettuce, treatment as in Example 1; for seed production through selfing: 200 μM spray on inflorescences from early bolting stage, versus mock-treated controls (FIG. 1)
From the text: A mutant lettuce plant (Lactuca sativa), having a mutated version of the OPR3 gene, was obtained by means of chemical mutagenesis and subsequent TILLING screening of about 3,000 M2 plants.
Phenotypically this mutant lettuce plant was indistinguishable from wild type lettuce plants, when the mutation was present in a heterozygous state. […] The few pollen grains that developed in such homozygous mutants were not functional.
From the early bolting stage the inflorescences were sprayed 5 times per week, for a total of 3 weeks.

[2] = test system: homozygous mutant endive plant (Cichorium endivia), having a mutated version of the OPR3 gene; assay: Reversal of male sterility in homozygous OPR3 mutant endive by treating young flower buds; assay type: in vivo; conditions: for restoration of male fertility in the F2 generation: F2 of cross of endive plants of the invention with wild type endive, treatment as in Example 3; for male fertility (functional pollen, seed set through self-pollination): homozygous mutants, controls remained male sterile; for male fertility (functional pollen, seed set through self-pollination) / flower colour of flowers developed from treated buds: 200 μM (0.2 mM) with 0.025% Zipper surfactant sprayed daily on young flower buds; for flower colour of flowers developed from treated buds: homozygous mutants (pale flowers untreated), about 3.5 months
From the text: A mutant endive plant (Cichorium endivia), having a mutated version of the OPR3 gene, was obtained by means of chemical mutagenesis and subsequent TILLING screening of about 10,000 M2 plants.
Phenotypically this mutant endive plant was indistinguishable from wild type endive plants, when the mutation was present in a heterozygous state. […] The pollen grains that developed in such homozygous mutants were unable to germinate and therefore dysfunctional.
Blue was the wild type flower colour in this endive background.

[3] = test system: Arabidopsis thaliana with mutations in the OPR3 gene; conditions: Arabidopsis OPR3 mutants, flower buds treated; cited from earlier work

Structure (SMILES) | restoration of male fertility in the F2 generation [1] | restoration of male fertility in the F2 generation [2] | male fertility (functional pollen, seed set through self-pollination) [2] | restoration of male fertility [3] | restoration of male fertility ([1]; homozygous mutants, 200 μM (0.2 mM) aqueous solution plus 0.025% Zipper surfactant sprayed on young flower buds, 5 times per week for 3 weeks) | seed production through selfing ([1]; homozygous mutants) | seed production through selfing ([1]; homozygous mutants, listed as MeJA) | flower colour of flowers developed from treated buds [2] | flower colour of flowers developed from treated buds ([2]; listed as MeJA) | male fertility (functional pollen, seed set through self-pollination) ([2]; listed as MeJA) | effect of other application methods than spraying ([2]; solution painted onto the surface of young flower buds with a fine brush)
CC/C=C\C[C@H]1C(=O)CC[C@@H]1CC(=O)O [jasmonic acid, (3R,7S)-jasmonic acid] | sufficient to restore male fertility | sufficient to restore male fertility | had the same effect | – | – | – | – | – | – | – | –
CC/C=C\CC1C(=O)CCC1CC(=O)OC (centres unmarked) [methyl jasmonate] | sufficient to restore male fertility | sufficient to restore male fertility | it has become male-fertile | could be restored | sufficient to restore male fertility | has produced seeds through selfing | produced seeds in a subset of their flowers | Its colour has changed to blue | developed into blue flowers | produced viable, functional pollen and were able to set seed through self-pollination; also recorded: could be overcome | comparable effects
